Experimental data published in patent US20250205268A1, “TREATMENT OF VIRUSES WITH ANTIVIRAL NUCLEOSIDES” (priority 2021, published 2025).
Entries after “also recorded” stand apart in the source; their conditions may differ. Like-named read-outs stand apart in the source and are kept apart here.

Experiments:
[1] = tested on: SARS-CoV-2; format: in vivo
[2] = format: in vivo, human; conditions: adults; age, sex, body size, food, mild-to-moderate renal or mild hepatic impairment
Experimental: A population pharmacokinetic (popPK) analysis for Compound A exposure was conducted using 4202 NHC plasma concentrations collected in 1207 individuals from a phase 1 study in healthy participants, a phase 2a study in non-hospitalized participants with COVID-19, a Phase 2 study in hospitalized participants with COVID-19, and a Phase 2/3 study in non-hospitalized participants with COVID-19. All studies were randomized, double-blind, placebo-controlled studies of safety, tolerability, and PK of Compound A after oral administration.

[3] = Phase 1 study
[4] = not given; remark: listed apart in the source
[5] = Part 2 interim analysis, MITT, 800 mg twice daily 5 days
[6] = Part 2 interim analysis, versus placebo
[7] = Part 2 interim, post-hoc sensitivity analysis, MITT
[8] = Part 2 interim, safety population

Compound: CC(C)C(=O)OC[C@H]1O[C@@H](n2ccc(NO)nc2=O)[C@H](O)[C@@H]1O [Compound A, {(2R,3S,4R,5R)-3,4-dihydroxy-5-[4-(hydroxyimino)-2-oxo-3,4-dihydropyrimidin-1 (2H)-yl]oxolan-2-yl}methyl 2-methylpropanoate]
- deaths through Day 29 ([1]; Part 2 interim analysis): No participants in the Compound A group died; also recorded: No deaths were reported
- relative reduction in the percentage of participants hospitalized or died through Day 29 ([1]; Part 2 interim analysis): ~50%
- treatment difference (Compound A minus placebo) in hospitalization or death at day 29 ([1]; Part 2 interim analysis (28 of 385 vs 53 of 377), MITT): −6.8 percentage points
- hazard ratio for hospitalization/death through Day 29 ([1]; Part 2 interim analysis, MITT): 0.51
- reduction in the risk of hospitalization/death through Day 29 (time-to-event analysis) ([1]; Part 2 interim analysis, MITT): ~50%
- participants hospitalized or died through Day 29 [1, 5]: 7.3%
- reduction in the risk of hospitalization or death through Day 29 compared with placebo [1, 5]: 6.8 percentage point
- participants hospitalized or died through Day 29 ([1]; Part 2 interim analysis, subgroup positive for SARS-CoV-2 antibodies at baseline): 2.9%
- progression of COVID-19 signs/symptoms [1, 6]: lower percentage of participants in the Compound A than the placebo group reported progression
- sustained improvement/resolution of self-reported COVID-19 signs/symptoms [1, 6]: higher percentage of participants in the Compound A group achieved earlier sustained improvement/resolution
- COVID-19-related hospitalizations and/or deaths through Day 29, n (%) [1, 7]: 25 (6.5) n (%)
- Unadjusted difference vs placebo in COVID-19-related hospitalizations and/or deaths [1, 7]: −6.8
- Adjusted difference in rates % (95% CI) vs placebo in COVID-19-related hospitalizations and/or deaths ([1]; Part 2 interim, post-hoc sensitivity analysis, MITT, Miettinen & Nurminen): −6.8 (−11.1, −2.6) %
- Covid-19 signs and symptoms versus placebo ([1]; final): sustained abatement or resolution was more likely
- deaths reported through day 29 ([1]; final): One
- 29-day all-cause mortality ([1]; final all-randomized MITT): 0.1%
- difference vs placebo in hospitalization or death through day 29 ([1]; final all-randomized MITT): −3.0 percentage points
- hazard ratio for hospitalization or death through day 29 ([1]; final all-randomized MITT): 0.69
- rate of hospitalization or death through day 29 lower than placebo (time-to-event analysis) ([1]; final all-randomized MITT): approximately 31%
- participants hospitalized or died through day 29 ([1]; final all-randomized MITT (48 of 709), 800 mg twice daily 5 days): 6.8%
- risk of hospitalization or death through day 29 lower than placebo, adjusted for participant sex ([1]; final, post hoc analysis): 2.8 percentage points
- difference vs placebo in Covid-19-related hospitalizations or deaths ([1]; final, prespecified supporting analysis): −2.8 percentage points
- participants with Covid-19-related hospitalizations or deaths ([1]; final, prespecified supporting analysis (45 of 709)): 6.3%
- risk of death lower than with placebo ([1]; final, through day 29): 89%
- need for dose adjustment [2]: without dose adjustment
- hematological laboratory tests [3]: no clinically significant abnormalities
- liver parameters ([3]; any dose): No clinically significant abnormalities in liver parameters
- serum lipase ([3]; at least 3 days after last dose, not dose related): Transient elevations of serum lipase
- participants with serious adverse events resulting in hospitalization (400-mg group): 3.2%
- participants with serious adverse events resulting in hospitalization (800-mg group): 1.8%
- incidence of treatment-associated adverse events (800-mg group compared with the other groups): lowest
- adverse events that led to discontinuation (Compound A groups combined): 1.4%
- adverse events (all doses, similar to placebo): few, and mainly low-grade
- Grade 3 or higher adverse events (combined Compound A groups): 5.0%
- hematology or clinical chemistry data (during the study): no dose-related trends
- AE: COVID-19 pneumonia ([4]; Part 2 interim): 4.9%
- AE: bacterial pneumonia ([4]; Part 2 interim): 2.1%
- AE: worsening COVID-19 ([4]; Part 2 interim): 8.0%
- tolerability ([4]; Part 2 interim analysis): well-tolerated
- Died [4, 8]: (0.0) %
- Estimated difference vs placebo: Died [4, 8]: −2.6%
- adverse event: Covid-19 pneumonia ([4]; final): 6.3%
- adverse event: bacterial pneumonia ([4]; final): 2.0%
- adverse event: worsening of Covid-19 ([4]; final): 7.9%
- Death ([4]; final, safety population): 2 (0.3) number (percent)
- Estimated Difference (95% CI) vs placebo: Death ([4]; final, safety population): −1.4 (−2.7 to −0.5) percentage points
- AE: diarrhea ([4]; human, in vivo): 3.9%
- AE: nausea ([4]; human, in vivo): 2.8%
- AE: respiratory failure ([4]; human, in vivo): 1.0%
- At least 1 serious AE ([4]; human, in vivo): (7.3) %
- At least 1 serious drug-related AE ([4]; human, in vivo): (0.0) %
- Discontinued the assigned regimen because of a serious adverse event ([4]; human, in vivo): 5 (0.7) number (percent)
- Discontinued the assigned regimen because of a serious adverse event related to the assigned regimen ([4]; human, in vivo): 0 number (percent)
- Discontinued the assigned regimen because of an adverse event ([4]; human, in vivo): 10 (1.4) number (percent)
- Discontinued the assigned regimen because of an adverse event related to the assigned regimen ([4]; human, in vivo): 4 (0.6) number (percent)
- Discontinued treatment due to a drug-related AE ([4]; human, in vivo): (0.8) %
- Discontinued treatment due to a serious AE ([4]; human, in vivo): (0.3) %
- Discontinued treatment due to a serious drug-related AE ([4]; human, in vivo): (0.0) %
- Discontinued treatment due to an AE ([4]; human, in vivo): (1.3) %
- Estimated Difference (95% CI) vs placebo: discontinued because of a serious adverse event ([4]; human, in vivo): −1.2 (−2.5 to 0.0) percentage points
- Estimated Difference (95% CI) vs placebo: discontinued because of a serious adverse event related to the assigned regimen ([4]; human, in vivo): 0.0 (−0.5 to 0.5) percentage points
- Estimated Difference (95% CI) vs placebo: discontinued because of an adverse event ([4]; human, in vivo): −1.4 (−3.1 to 0.1) percentage points
- Estimated Difference (95% CI) vs placebo: discontinued because of an adverse event related to the assigned regimen ([4]; human, in vivo): 0.1 (−0.8 to 1.1) percentage points
- Estimated Difference (95% CI) vs placebo: ≥1 Adverse event ([4]; human, in vivo): −2.5 (−7.4 to 2.3) percentage points
- Estimated Difference (95% CI) vs placebo: ≥1 Adverse event related to the assigned regimen ([4]; human, in vivo): −0.4 (−3.3 to 2.5) percentage points
- Estimated Difference (95% CI) vs placebo: ≥1 Serious adverse event ([4]; human, in vivo): −2.7 (−5.6 to 0.2) percentage points
- Estimated Difference (95% CI) vs placebo: ≥1 Serious adverse event related to the assigned regimen ([4]; human, in vivo): −0.1 (−0.8 to 0.4) percentage points
- Estimated difference vs placebo: At least 1 AE ([4]; human, in vivo): −4.6%
- Estimated difference vs placebo: At least 1 drug-related AE ([4]; human, in vivo): 1.4%
- Estimated difference vs placebo: At least 1 serious AE ([4]; human, in vivo): −6.7%
- Estimated difference vs placebo: At least 1 serious drug-related AE ([4]; human, in vivo): 0.0%
- Estimated difference vs placebo: Discontinued treatment due to a drug-related AE ([4]; human, in vivo): −0.0%
- Estimated difference vs placebo: Discontinued treatment due to a serious AE ([4]; human, in vivo): −2.1%
- Estimated difference vs placebo: Discontinued treatment due to a serious drug-related AE ([4]; human, in vivo): 0.0%
- Estimated difference vs placebo: Discontinued treatment due to an AE ([4]; human, in vivo): −2.1%
- adverse event related to the trial regimen: diarrhea ([4]; human, in vivo): 1.7%
- adverse event related to the trial regimen: dizziness ([4]; human, in vivo): 1.0%
- adverse event related to the trial regimen: nausea ([4]; human, in vivo): 1.4%
- adverse event: diarrhea ([4]; human, in vivo): 2.3%
- drug-related AE: diarrhea ([4]; human, in vivo): 3.1%
- drug-related AE: nausea ([4]; human, in vivo): 2.3%
- participants with adverse events considered related to the trial regimen ([4]; human, in vivo): 8.0%
- ≥1 Adverse event ([4]; human, in vivo): 216 (30.4) number (percent)
- ≥1 Adverse event related to the assigned regimen ([4]; human, in vivo): 57 (8.0) number (percent)
- ≥1 Serious adverse event ([4]; human, in vivo): 49 (6.9) number (percent)
- ≥1 Serious adverse event related to the assigned regimen ([4]; human, in vivo): 0 number (percent)
- hematological laboratory tests ([4]; in vivo): no clinically significant abnormalities
- liver parameters ([4]; in vivo): No clinically significant abnormalities in liver parameters
- participants meeting prespecified criteria for platelets <50,000/μL or potential drug-induced liver injury ([4]; in vivo): No participants in the Compound A group met prespecified criteria
- participants meeting prespecified criteria for postbaseline platelet count below 50,000 per microliter ([4]; in vivo): One participant
